Test results: patent US20260102359A1, “COMBINATION TREATMENT OF DERMAL AND TRANSDERMAL FIBROTIC DISEASES, DISORDERS AND ASSOCIATED PAIN AND INFLAMMATION” (ERESINA, LLC, priority 2022, published 2026)
Structures can show the parent of a compound that is named as a salt.

test system: hDMFa myofibroblast cells

| Structure (SMILES) | Compound Myofibroblast Cytotoxicity Activity |
| --- | --- |
| C#CCN(C)Cc1ccccc1 [Cmpd 757, Pargyline (hydrochloride)] | ++ |
| Fc1ccc([C@@H]2CCNC[C@H]2COc2ccc3c(c2)OCO3)cc1 [Cmpd 758, Paroxetine HCl] | +++ |
| CS(=O)(=O)O.C[C@H]1COc2c(C3(N)CC3)c(F)cc3c(=O)c(C(=O)O)cn1c23 [Cmpd 760, Pazufloxacin mesylate] | +++ |
| Cc1ccc(O)cc1 [Cmpd 762, p-Cresol] | ++ |
| CC(=O)c1c(C)c2cnc(Nc3ccc(N4CCNCC4)cn3)nc2n(C2CCCC2)c1=O.Cl [Cmpd 763, PD 0332991 (Palbociclib) HCl] | ++++ |
| OC1(c2ccc(Cl)c(C(F)(F)F)c2)CCN(CCCC(c2ccc(F)cc2)c2ccc(F)cc2)CC1 [Cmpd 765, Penfluridol] | +++ |
| CC(C)(S)[C@@H](N)C(=O)O [Cmpd 766, Penicillamine] | ++ |
| N=C(N)c1ccc(OCCCCCOc2ccc(C(=N)N)cc2)cc1.O=S(=O)(O)CCO.O=S(=O)(O)CCO [Cmpd 768, Pentamidine isethionate] | +++ |
| CC(=O)CCCCn1c(=O)c2c(ncn2C)n(C)c1=O [Cmpd 769, Pentoxifylline] | ++++ |
| C1CCc2nnnn2CC1 [Cmpd 770, Pentylenetetrazole] | ++++ |
| OCCN1CCN(CCCN2c3ccccc3Sc3ccc(Cl)cc32)CC1 [Cmpd 773, Perphenazine] | +++++ |
| COS(=O)(=O)[O-].C[n+]1c2ccccc2nc2ccccc21 [Cmpd 775, Phenazine methosulfate] | +++++ |
| CC(COc1ccccc1)N(CCCl)Cc1ccccc1.Cl (stereo not drawn) [Cmpd 776, Phenoxybenzamine HCl] | ++ |
| O=C1NC(=O)C(c2ccccc2)(c2ccccc2)N1 [Cmpd 778, Phenytoin sodium] | ++ |
| O=C(O)c1ccccc1C(=O)O [Cmpd 781, Phthalic acid] | ++ |
| O=C(O)CCCNC(=O)c1cccnc1 [Cmpd 783, Pikamilone] | ++ |
| CCc1ccc(CCOc2ccc(CC3SC(=O)NC3=O)cc2)nc1 (stereo not drawn) [Cmpd 785, Pioglitazone HCl] | +++ |
| O=C([O-])C[C@H](O)C[C@H](O)/C=C/c1c(C2CC2)nc2ccccc2c1-c1ccc(F)cc1.O=C([O-])C[C@H](O)C[C@H](O)/C=C/c1c(C2CC2)nc2ccccc2c1-c1ccc(F)cc1.[Ca+2] [Cmpd 786, Pitavastatin Calcium] | +++ |
| Nc1cccc2c1C(=O)N(C1CCC(=O)NC1=O)C2=O (stereo not drawn) [Cmpd 789, Pomalidomide (CC-4047)] | ++ |
| C[n+]1ccccc1/C=N/O [Cmpd 792, Pralidoxime Iodide] | ++ |

| Structure (SMILES) | Compound Myofibroblast Cytotoxicity Activity |
| --- | --- |
| CC(=O)Oc1cc2c(s1)CCN(C(C(=O)C1CC1)c1ccccc1F)C2.Cl (stereo not drawn) [Cmpd 794, Prasugrel hydrochloride] | ++ |
| COc1cc(NC(C)CCCN)c2ncccc2c1.O=P(O)(O)O.O=P(O)(O)O (stereo not drawn) [Cmpd 796, Primaquine Diphosphate] | +++ |
| CN1CCN(CCCN2c3ccccc3Sc3ccc(Cl)cc32)CC1 [Cmpd 797, Prochlorperazine] | +++++ |
| CC(=O)[C@H]1CC[C@H]2[C@@H]3CCC4=CC(=O)CC[C@]4(C)[C@H]3CC[C@]12C [Cmpd 799, Progesterone] | +++ |
| CCCOc1ccc2c(c1)CC[C@@H]1[C@@H]2CC[C@]2(C)[C@@H](OC)CC[C@@H]12 [Cmpd 800, Promestriene] | ++ |
| CC(CN1c2ccccc2Sc2ccccc21)N(C)C (stereo not drawn) [Cmpd 801, Promethazine HCl] | ++ |
| O=C(O)c1ccc(O)c(O)c1 [Cmpd 804, Protocatechuic acid] | ++ |
| CC(O)Cn1cnc2c1c(=O)n(C)c(=O)n2C (stereo not drawn) [Cmpd 805, Proxyphylline] | ++ |
| COCCCN1CCC(NC(=O)c2cc(Cl)c(N)c3c2OCC3)CC1 [Cmpd 806, Prucalopride] | +++ |
| Cc1ncc(CO)c(CO)c1O [Cmpd 809, Pyridoxine] | ++ |
| Oc1ccccc1O [Cmpd 810, Pyrocatechol] | ++ |
| N.S=C(S)N1CCCC1 [Cmpd 811, Pyrrolidinedithiocarbamate ammonium] | ++ |
| CC(C)(C)c1cc(NC(=O)Nc2ccc(-c3cn4c(n3)sc3cc(OCCN5CCOCC5)ccc34)cc2)no1 [Cmpd 815, Quizartinib (AC220)] | ++++ |
| COc1cc(Nc2ncc(F)c(Nc3ccc4c(n3)N(COP(=O)([O-])[O-])C(=O)C(C)(C)O4)n2)cc(OC)c1OC.[Na+].[Na+] [Cmpd 816, R788 disodium] | ++ |
| CC(=O)SCC(Cc1ccccc1)C(=O)NCC(=O)OCc1ccccc1 (stereo not drawn) [Cmpd 817, Racecadotril] | ++ |
| Cc1cn(-c2cc(NC(=O)c3ccc(C)c(Nc4nccc(-c5cnccn5)n4)c3)cc(C(F)(F)F)c2)cn1 [Cmpd 818, Radotinib(IY-5511)] | ++++ |
| O=C(c1ccc(OCCN2CCCCC2)cc1)c1c(-c2ccc(O)cc2)sc2cc(O)ccc12 [Cmpd 819, Raloxifene HCl] | ++++ |
| CO[C@H]1C[C@@H]2CC[C@@H](C)[C@@](O)(O2)C(=O)C(=O)N2CCCC[C@H]2C(=O)O[C@H]([C@H](C)C[C@@H]2CC[C@@H](O)[C@H](OC)C2)CC(=O)[C@H](C)/C=C(\C)[C@@H](O)[C@@H](OC)C(=O)[C@H](C)C[C@H](C)/C=C/C=C/C=C/1C [Cmpd 820, Rapamycin (Sirolimus)] | ++++ |
| C#CCN[C@@H]1CCc2ccccc21 [Cmpd 821, Rasagiline] | ++ |
| CCOc1cc(CC(=O)N[C@@H](CC(C)C)c2ccccc2N2CCCCC2)ccc1C(=O)O [Cmpd 826, Repaglinide] | +++ |

| Structure (SMILES) | Compound Myofibroblast Cytotoxicity Activity |
| --- | --- |
| O=c1ccc2[n+]([O-])c3ccc(O)cc3oc-2c1 [Cmpd 827, Resazurin sodium salt] | ++ |
| Oc1ccc(C=Cc2cc(O)cc(O)c2)cc1 [Cmpd 829, Resveratrol] | ++ |
| CCCCCCCCCCCCCCCC(=O)OC/C=C(C)/C=C/C=C(C)/C=C/C1=C(C)CCCC1(C)C [Cmpd 830, Retinyl (Vitamin A) Palmitate] | ++ |
| CO[C@H]1/C=C/O[C@@]2(C)Oc3c(C)c(O)c4c(O)c(cc(O)c4c3C2=O)NC(=O)/C(C)=C\C=C\[C@H](C)[C@H](O)[C@@H](C)[C@@H](O)[C@@H](C)[C@H](OC(C)=O)[C@@H]1C [Cmpd 833, Rifamycin sodium salt] | ++ |
| CO[C@H]1/C=C/O[C@@]2(C)Oc3c(C)c(O)c4c(O)c(c(/C=N/N5CCN(C6CCCC6)CC5)c(O)c4c3C2=O)NC(=O)/C(C)=C\C=C\[C@H](C)[C@H](O)[C@@H](C)[C@@H](O)[C@@H](C)[C@H](OC(C)=O)[C@@H]1C [Cmpd 834, Rifapentine] | +++ |
| N=C(N/N=C/c1ccc(Cl)cc1)N/N=C/c1ccc(Cl)cc1 [Cmpd 838, Robenidine hydrochloride] | ++ |
| C/C=C1\NC(=O)[C@H]2CSSCC/C=C/[C@H](CC(=O)N[C@H](C(C)C)C(=O)N2)OC(=O)[C@H](C(C)C)NC1=O [Cmpd 839, Romidepsin (FK228,depsipeptide)] | ++ |
| CCCN1CCCC[C@H]1C(=O)Nc1c(C)cccc1C.CS(=O)(=O)O [Cmpd 840, Ropivacaine Mesilate] | ++ |
| CN(C(=O)c1c(O)c2ccccc2n(C)c1=O)c1ccccc1 [Cmpd 841, Roquinimex] | ++ |
| CC(C)c1nc(N(C)S(C)(=O)=O)nc(-c2ccc(F)cc2)c1/C=C/[C@@H](O)C[C@@H](O)CC(=O)[O-].CC(C)c1nc(N(C)S(C)(=O)=O)nc(-c2ccc(F)cc2)c1/C=C/[C@@H](O)C[C@@H](O)CC(=O)[O-].[Ca+2] [Cmpd 842, Rosuvastatin Calcium] | +++ |
| NC(=O)c1cn(Cc2c(F)cccc2F)nn1 [Cmpd 843, Rufinamide] | +++ |
| Cc1cncc(CN2CCC(=C3c4ccc(Cl)cc4CCc4cccnc43)CC2)c1.O=C(O)/C=C/C(=O)O [Cmpd 844, Rupatadine Fumarate] | +++ |
| C[C@H]1O[C@@H](O[C@H]2CC[C@@]3(C)[C@@H](CC[C@]4(C)[C@@H]3C=C[C@]35OC[C@@]6(CCC(C)(C)C[C@H]63)[C@@H](O)C[C@]54C)[C@]2(C)CO)[C@H](O)[C@@H](O[C@@H]2O[C@H](CO)[C@@H](O)[C@H](O)[C@H]2O)[C@H]1O [Cmpd 846, Saikosaponin A] | +++++ |
| CC(C)(C)NCC(O)c1ccc(O)c(CO)c1 (stereo not drawn) [Cmpd 847, Salbutamol] | ++ |
| OCc1cc(C(O)CNCCCCCCOCCCCc2ccccc2)ccc1O (stereo not drawn) [Cmpd 849, Salmeterol xinafoate] | +++ |
| C[n+]1cc2c3c(ccc2c2ccc4cc5c(cc4c21)OCO5)OCO3 [Cmpd 850, Sanguinarine] | +++++ |
| C[n+]1cc2c3c(ccc2c2ccc4cc5c(cc4c21)OCO5)OCO3 [Cmpd 851, Sanguinarine chloride] | ++++ |
| CC(C)(C)NC(=O)[C@@H]1C[C@@H]2CCCC[C@@H]2CN1C[C@@H](O)[C@H](Cc1ccccc1)NC(=O)[C@H](CC(N)=O)NC(=O)c1ccc2ccccc2n1 [Cmpd 852, Saquinavir mesylate] | ++++ |
| N#C[C@@H]1C[C@@H]2C[C@@H]2N1C(=O)[C@@H](N)C12CC3CC(CC(O)(C3)C1)C2 [Cmpd 854, Saxagliptin hydrate] | ++ |
| COc1cc2ccc(=O)oc2cc1O [Cmpd 857, Scopoletin] | ++ |
